Assay results: patent US9845291B2, “Estrogen receptor modulators and uses thereof” (Genentech, Inc., priority 2014, dated 2017)

Target: estrogen receptor alpha (ESR1) (Homo sapiens, UniProt P03372)
Assay: cell-based
Conditions: for ER-alpha MCF7 HCS Sinf: MCF7 breast cancer cells, 4 hours, plateau of the maximal effect, DMSO and Fulvestrant define 0% and 100% changes in ESR1
Procedure: Where more than one name is associated with a Formula I compound or intermediate, the chemical structure shall define the compound.
Cell plates were incubated at 37° C., for 4 hours. Fixation and permeabilization were carried out using a Biotek EL406 plate washer and dispenser as follows. […] Samples were incubated 30 minutes. Well contents was aspirated and 50 ul/well of Phosphate Buffered Saline (PBS) containing 0.5% w/v bovine serum albumen, 0.5% v/v Triton X-100 (Antibody Dilution Buffer) was added to each well. Samples were incubated for 30 minutes. Well contents were aspirated and washed 3 times with 100 ul/well of PBS. Immunofluorescence staining of estrogen receptor alpha (ESR1) was carried out using a Biotek EL406 plate washer and dispenser as follows. […] Samples were incubated for 2 hours at room temperature. Samples were washed 4 times with 100 ul/well of PBS. […] Samples were incubated for 2 hours at room temperature. Samples were washed 3 times with 100 ul/well of PBS using a Biotek EL406. Quantitative fluorescence imaging of ESR1 was carried out using a Cellomics Arrayscan V (Thermo). […] Channel 1 (DNA stain) was used to define the nuclear region (Circ). […] Data analysis was carried out using Genedata Screener Software, with DMSO and 5 nM Fulvestrant treated samples being used to define the 0% and 100% changes in ESR1. The “Robust Fit” method was used to define the inflexion point of curve (EC50) and the plateau of the maximal effect (Sin f).

Chain of estrogen receptor alpha (ESR1) (P03372 whole entry): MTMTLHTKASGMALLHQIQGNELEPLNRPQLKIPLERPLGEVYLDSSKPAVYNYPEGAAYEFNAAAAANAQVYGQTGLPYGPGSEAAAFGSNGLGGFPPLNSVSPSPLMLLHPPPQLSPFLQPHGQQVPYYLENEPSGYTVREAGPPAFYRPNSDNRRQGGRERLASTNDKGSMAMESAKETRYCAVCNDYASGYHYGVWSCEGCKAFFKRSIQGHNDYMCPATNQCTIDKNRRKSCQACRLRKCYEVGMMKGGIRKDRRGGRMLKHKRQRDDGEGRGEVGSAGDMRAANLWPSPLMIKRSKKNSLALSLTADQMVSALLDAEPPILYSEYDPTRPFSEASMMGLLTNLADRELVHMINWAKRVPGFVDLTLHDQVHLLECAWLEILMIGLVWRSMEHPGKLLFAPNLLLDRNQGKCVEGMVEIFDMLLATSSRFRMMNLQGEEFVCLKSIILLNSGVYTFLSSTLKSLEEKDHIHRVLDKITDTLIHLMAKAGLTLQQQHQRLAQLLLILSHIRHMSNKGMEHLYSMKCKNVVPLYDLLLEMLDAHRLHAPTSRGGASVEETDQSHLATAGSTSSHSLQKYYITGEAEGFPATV

Structure (SMILES) | EC50 [nM] | ER-alpha MCF7 HCS Sinf [%]
CS(=O)(=O)c1ccc(-c2ccc3cc(O)ccc3c2Oc2ccc(OCCN3CC[C@@H](CF)C3)cc2)cc1 [Example 8, (R)-5-(4-(2-(3-(Fluoromethyl)pyrrolidin-1-yl)ethoxy)phenoxy)-6-(4-(methylsulfonyl)phenyl)naphthalen-2-ol] | 0.27 | −95
CC/C(=C(/c1ccc(OCCN2CC(CF)C2)cc1)c1ccc2[nH]ncc2c1)c1ccccc1 [Example 25, (E)-5-(1-(4-(2-(3-(Fluoromethyl)azetidin-1-yl)ethoxy)phenyl)-2-phenylbut-1-en-1-yl)-1H-indazole] | 1.5 | −92
CC/C(=C(\c1ccc(O)cc1)c1ccc(OCCN2CC[C@@H](CF)C2)cc1)c1ccccc1 [Example 22, (R,Z)-4-(1-(4-(2-(3-(Fluoromethyl)pyrrolidin-1-yl)ethoxy)phenyl)-2-phenylbut-1-en-yl)phenol] | 0.58 | −83
FC[C@@H]1CCN(CCOc2ccc(/C(=C(\c3ncc(C(F)(F)F)cc3Cl)C3CCC3)c3ccc4[nH]nc(F)c4c3)cc2)C1 [Example 27, (R,E)-5-(2-(3-Chloro-5-(trifluoromethyl)pyridin-2-yl)-2-cyclobutyl-1-(4-(2-(3-(fluoromethyl)pyrrolidin-1-yl)ethoxy)phenyl)vinyl)-3-fluoro-1H-indazole] | 0.85 | −73
O=C(c1ccc(OCCN2CC(CF)C2)cc1)c1c(-c2ccc(F)c(F)c2)sc2cc(O)ccc12 [Example 35, (2-(3,4-difluorophenyl)-6-hydroxybenzo[b]thiophen-3-yl)(4-(2-(3-(fluoromethyl)azetidin-1-yl)ethoxy)phenyl)methanone] | 0.55 | −98
COc1ccc(/C(=C(\c2ccc(OCCN3CC[C@@H](CF)C3)cc2)c2ccc3[nH]nc(F)c3c2)C2CCC2)c(Cl)c1 [Example 26, (R,E)-5-(2-(2-Chloro-4-methoxyphenyl)-2-cyclobutyl-1-(4-(2-(3-(fluoromethyl)pyrrolidin-1-yl)ethoxy)phenyl)vinyl)-3-fluoro-1H-indazole] | 0.6 | −75
Cc1c(-c2ccc(O)c(Cl)c2)n(Cc2ccc(OCCN3CC(CF)C3)cc2)c2ccc(O)cc12 [Example 46, 2-(3-chloro-4-hydroxy-phenyl)-1-[[4-[2-[3-(fluoromethyl)azetidin-1-yl]ethoxy]phenyl]methyl]-3-methyl-indol-5-ol] | 0.03 | −97.8
Oc1ccc(C(=C2CCCCC2)c2ccc(OCCN3CC(CF)C3)cc2)cc1 [Example 18, 4-(Cyclohexylidene-{4-[2-(3-fluoromethyl-azetidin-1-yl)-ethoxy]-phenyl}-methyl)-phenol] | 12 | −89
Cc1c(-c2ccc(O)cc2Cl)n(Cc2ccc(OCCN3CC(CF)C3)cc2)c2ccc(O)cc12 [Example 47, 2-(2-chloro-4-hydroxy-phenyl)-1-[[4-[2-[3-(fluoromethyl)azetidin-1-yl]ethoxy]phenyl]methyl]-3-methyl-indol-5-ol] | 0.115 | −94.1
CS(=O)(=O)c1ccc(-c2ccc3c(F)c(O)ccc3c2Oc2ccc(OCCN3CC[C@@H](CF)C3)cc2)cc1 [Example 79, (R)-1-fluoro-5-(4-(2-(3-(fluoromethyl)pyrrolidin-1-yl)ethoxy)phenoxy)-6-(4-(methylsulfonyl)phenyl) naphthalen-2-ol] | 0.072 | −89.6
Cc1cc(-c2c(C)c3cc(O)ccc3n2Cc2ccc(OC[C@H](C)N3CC[C@@H](CF)C3)cc2)ccc1O [Example 43, 1-[[4-[(2S)-2-[(3R)-3-(fluoromethyl)pyrrolidin-1-yl]propoxy]phenyl]methyl]-2-(4-hydroxy-3-methyl-phenyl)-3-methyl-indol-5-ol] | 0.0179 | −96.0
CC/C(=C(\c1ccc(O)cc1)c1ccc(OCCN2CC(CF)C2)cc1)c1ccccc1 [Example 23] | 0.59 | −95
O=C(c1ccc(OCCN2CC(CF)C2)c(F)c1)c1c(-c2ccccc2Cl)nsc1-c1ccc(O)cc1 [Example 72, [3-(2-Chloro-phenyl)-5-(4-hydroxy-phenyl)-isothiazol-4-yl]-{3-fluoro-4-[2-(3-fluoromethyl-azetidin-1-yl)-ethoxy]-phenyl}-methanone] | 0.0159 | −99.0
Cc1c(-c2ccc(O)cc2Cl)n(Cc2ccc(OCCN3CC[C@@H](CF)C3)cc2)c2ccc(O)cc12 [Example 55, 2-(2-chloro-4-hydroxyphenyl)-1-(4-(2-((R)-3-(fluoromethyl)pyrrolidin-1-yl)ethoxy)benzyl)-3-methyl-1H-indol-5-ol] | 0.0199 | −98.7
Cc1c(-c2ccccc2)n(Cc2ccc(OCCN3CC(CF)C3)cc2)c2ccccc12 [Example 4, 1-(4-(2-(3-(Fluoromethyl)azetidin-1-yl)ethoxy)benzyl)-3-methyl-2-phenyl-1H-indole] | 200 | −81
Oc1ccc(-c2snc(-c3ccccc3Cl)c2-c2ccc(OCCN3CC(CF)C3)c(F)c2)cc1 [Example 16, 4-(3-(2-Chloro-phenyl)-4-{3-fluoro-4-[2-(3-fluoromethyl-azetidin-1-yl)-ethoxy]-phenyl}-isothiazol-5-yl)-phenol] | – | −99.2
Cc1c(-c2ccc(O)cc2)n(Cc2ccc(OCCN3CC(CF)C3)cc2)c2ccc(O)cc12 [Example 1, 1-(4-(2-(3-(Fluoromethyl)azetidin-1-yl)ethoxy)benzyl)-2-(4-hydroxyphenyl)-3-methyl-1H-indol-5-ol] | 0.46 | −95
Cc1cc(F)ccc1-c1sc2cc(O)ccc2c1C(=O)c1ccc(OCCN2CC(CF)C2)cc1 [Example 38, (2-(4-fluoro-2-methylphenyl)-6-hydroxybenzo[b]thiophen-3-yl)(4-(2-(3-(fluoromethyl)azetidin-1-yl)ethoxy)phenyl)methanone] | 0.88 | −96
O=C(c1ccc(OCCN2CC(CF)C2)cc1)c1c(-c2ccc(F)cc2)sc2cc(O)ccc12 [Example 10, (4-(2-(3-(fluoromethyl)azetidin-1-yl)ethoxy)phenyl)(2-(4-fluorophenyl)-6-hydroxyhenzo[b]thiophen-3-yl)methanone] | 0.45 | −96
Cc1cc(-c2c(C)c3cc(O)ccc3n2Cc2ccc(OCCN3CC[C@@H](CF)C3)cc2)ccc1O [Example 42, (R)-1-(4-(2-(3-(fluoromethyl)pyrrolidin-1-yl)ethoxy)benzyl)-2-(4-hydroxy-3-methylphenyl)-3-methyl-1H-indol-5-ol] | 0.025 | −97.5
Oc1ccc2c(c1)C1=C(c3cc(O)ccc3OCC1)[C@@H](c1ccc(OCCN3CC(CF)C3)cc1)O2 [Example 75, (R)-8-(4-(2-(3-(fluoromethyl)azetidin-1-yl)ethoxy)phenyl)-1,8-dihydro-2H-benzo[2,3]oxepino[4,5-c]chromene-6,12-diol] | 3.2 | −99.7
Oc1ccc2c(c1)C1=C(c3cc(O)ccc3OCC1)[C@H](c1ccc(OCCN3CC(CF)C3)cc1)O2 [Example 74, (S)-8-(4-(2-(3-(fluoromethyl)azetidin-1-yl)ethoxy)phenyl)-1,8-dihydro-2H-benzo[2,3]oxepino[4,5-c]chromene-6,12-diol] | 0.19 | −93.3
